#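 A five-concentration, 48-hour dose response in 96-well plates underlies each endpoint, interpolated linearly between surrounding concentrations. The concentration for 50% growth inhibition is given as GI50.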 Activity calls are given as the source filed them. No stated cut-off is given here; in the data, active = GI50 up to about 1.1 µM and inactive = higher.
# Columns and labels:
# Assay in all cases: NCI tumour cell line growth inhibition, 48 h
# [1] = test system: RXF 393
# [2] = test system: HCT-116
# [3] = test system: SR
# [4] = test system: 786-0
# [5] = test system: SK-MEL-5
# [6] = test system: Hs-578T
# [7] = test system: A498
# [8] = test system: OVCAR-5
# [9] = test system: SK-MEL-28
# [10] = test system: NCI-H226
# [11] = test system: HCC 2998
# [12] = test system: SK-MEL-2
# [13] = test system: HOP-92
# [14] = test system: PC-3
# [15] = test system: NCI/ADR-RES
# [16] = test system: DU-145
# [17] = test system: RPMI-8226
# [18] = test system: HOP-62
Compound,GI50 [1],GI50 [2],GI50 [3],GI50 [4],GI50 [5],GI50 [6],GI50 [7],GI50 [8],GI50 [9],GI50 [10],GI50 [11],GI50 [12],GI50 [13],GI50 [14],GI50 [15],GI50 [16],GI50 [17],GI50 [18]
CC(C)(C)N/N=C(\C(=O)Nc1ccc([N+](=O)[O-])cc1[N+](=O)[O-])c1nc2ccc([N+](=O)[O-])cc2nc1O,> 100 µM (inactive),68.5 µM (inactive),31.3 µM (inactive),> 100 µM (inactive),13.6 µM (inactive),82.6 µM (inactive),> 100 µM (inactive),> 100 µM (inactive),> 100 µM (inactive),23.7 µM (inactive),37.1 µM (inactive),> 100 µM (inactive),> 100 µM (inactive),96.4 µM (inactive),> 100 µM (inactive),> 100 µM (inactive),13.2 µM (inactive),–
COC1=CC(=O)C2=C(C1=O)[C@H]1CC[C@]3(C)C(=O)CC[C@H]3[C@@H]1CC2,28.1 µM (inactive),18.5 µM (inactive),34.9 µM (inactive),24.1 µM (inactive),18.5 µM (inactive),28.5 µM (inactive),> 100 µM (inactive),20.3 µM (inactive),78 µM (inactive),22.1 µM (inactive),54.1 µM (inactive),18.7 µM (inactive),19.8 µM (inactive),28.5 µM (inactive),20.1 µM (inactive),25.3 µM (inactive),26.1 µM (inactive),59.8 µM (inactive)
COC(=O)CCC(=O)NC1=C(Nc2ccc(OC)cc2)C(=O)c2ccccc2C1=O,13.4 µM (inactive),6.58 µM (inactive),12.9 µM (inactive),17.9 µM (inactive),1.83 µM (inactive),20.8 µM (inactive),19.2 µM (inactive),17.1 µM (inactive),17.2 µM (inactive),17.7 µM (inactive),20.1 µM (inactive),6.3 µM (inactive),8.69 µM (inactive),9.66 µM (inactive),16.3 µM (inactive),14 µM (inactive),15.7 µM (inactive),18.7 µM (inactive)
CCCC(=O)Nc1cn(COC)c(C(=O)N2C[C@@H]3C[C@]34C2=CC(=O)c2[nH]cc(C)c24)n1,2.57 µM (inactive),7.21 µM (inactive),0.24 µM (active),5.15 µM (inactive),4.36 µM (inactive),15.1 µM (inactive),9.48 µM (inactive),28.7 µM (inactive),14.5 µM (inactive),10.5 µM (inactive),5.31 µM (inactive),8.47 µM (inactive),9.31 µM (inactive),6.81 µM (inactive),7.87 µM (inactive),1.53 µM (inactive),10.9 µM (inactive),13.6 µM (inactive)
COc1ccc(N(C(=O)Nc2ccc(Cl)c(Cl)c2)C2c3cccn3C(=O)N2c2ccc(Cl)c(Cl)c2)cc1 (stereo not given),> 100 µM (inactive),17.3 µM (inactive),12.4 µM (inactive),> 100 µM (inactive),70.5 µM (inactive),> 100 µM (inactive),27.7 µM (inactive),16.4 µM (inactive),> 100 µM (inactive),> 100 µM (inactive),56.5 µM (inactive),> 100 µM (inactive),51.3 µM (inactive),60.4 µM (inactive),> 100 µM (inactive),> 100 µM (inactive),0.0724 µM (active),–
O=C1CCSc2nc(-c3ccc4c(c3)OCO4)nn21,> 10 µM (inactive),> 10 µM (inactive),> 10 µM (inactive),> 10 µM (inactive),> 10 µM (inactive),> 10 µM (inactive),> 10 µM (inactive),> 10 µM (inactive),> 10 µM (inactive),> 10 µM (inactive),> 10 µM (inactive),> 10 µM (inactive),> 10 µM (inactive),> 10 µM (inactive),> 10 µM (inactive),> 10 µM (inactive),> 10 µM (inactive),> 10 µM (inactive)
COC(=O)c1c(O)ccc2c1c1c(n2Cc2ccc(OC)cc2)C(=O)c2ccccc2C1=O,10.7 µM (inactive),6.3 µM (inactive),0.251 µM (active),12 µM (inactive),–,13.9 µM (inactive),20.5 µM (inactive),25.4 µM (inactive),17.9 µM (inactive),10.4 µM (inactive),2.97 µM (inactive),11.3 µM (inactive),10.5 µM (inactive),5.2 µM (inactive),7.21 µM (inactive),18.2 µM (inactive),0.168 µM (active),16.3 µM (inactive)
COc1cc(C(=O)Oc2c(C(C)=O)sc3c2c(=O)n(-c2ccccc2)c(=S)n3-c2ccccc2)cc(OC)c1OC,18.9 µM (inactive),18.1 µM (inactive),> 100 µM (inactive),19.6 µM (inactive),17.4 µM (inactive),19.4 µM (inactive),5.78 µM (inactive),17.5 µM (inactive),19.2 µM (inactive),3.86 µM (inactive),24.7 µM (inactive),–,19.3 µM (inactive),18.2 µM (inactive),15.4 µM (inactive),26.4 µM (inactive),27 µM (inactive),24.4 µM (inactive)

# From ChEMBL document CHEMBL1201862, “PubChem BioAssay data set” (2004)
